Data published in PubChem BioAssay (NCI).
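Method: 48-hour compound exposure of cells in 96-well plates, five concentrations, linear interpolation of endpoints. GI50 is the concentration that inhibits growth by half. TGI marks complete inhibition of growth.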

What was measured:
Test in all cases: NCI tumour cell line growth inhibition, 48 h
[1] = test system: SF-539 CNS
[2] = test system: DU-145 prostate
[3] = test system: MOLT-4 leukemia
[4] = test system: BT-549 breast
[5] = test system: OVCAR-5 ovarian
[6] = test system: NCI-H226 lung
[7] = test system: NCI-H522 lung
[8] = test system: SK-MEL-2 melanoma
[9] = test system: UACC-62 melanoma
[10] = test system: HCT-15 colon
[11] = test system: TK-10 renal
[12] = test system: MCF7 breast
[13] = test system: UO-31 renal
[14] = test system: OVCAR-4 ovarian
[15] = test system: NCI/ADR-RES ovarian
[16] = test system: COLO 205 colon
[17] = test system: HCT-116 colon
[18] = test system: HL-60(TB) leukemia
[19] = test system: CCRF-CEM leukemia
[20] = test system: HOP-92 NSCLC
[21] = test system: EKVX NSCLC
[22] = test system: PC-3 prostate
[23] = test system: HT29 colon
[24] = test system: SW-620 colon
[25] = test system: SK-MEL-5 melanoma
[26] = test system: HCC-2998 colon
[27] = test system: K-562 leukemia
[28] = test system: A498 renal
[29] = test system: OVCAR-3 ovarian
[30] = test system: NCI-H460 lung
[31] = test system: SNB-19 CNS
[32] = test system: NCI-H23 lung
[33] = test system: UACC-257 melanoma
[34] = test system: KM12 colon
[35] = test system: RPMI-8226 leukemia
[36] = test system: HOP-62 NSCLC
[37] = test system: SF-268 CNS
[38] = test system: SK-OV-3 ovarian
[39] = test system: T-47D breast
[40] = test system: A549 NSCLC
[41] = test system: MDA-MB-231 breast
[42] = test system: ACHN renal
[43] = test system: SN12C renal
[44] = test system: OVCAR-8 ovarian
[45] = test system: CAKI-1 renal
[46] = test system: MDA-MB-435
[47] = test system: LOX IMVI melanoma
[48] = test system: SF-295 CNS
[49] = test system: MALME-3M melanoma
[50] = test system: M14 melanoma
[51] = test system: SK-MEL-28 melanoma
[52] = test system: IGROV1 ovarian
[53] = test system: 786-0 renal
[54] = test system: HS 578T breast
[55] = test system: RXF 393 renal
[56] = test system: U251 CNS
[57] = test system: SR leukemia
[58] = test system: SNB-75 CNS

Q: Which results are given for `Clc1cccc(-c2cc(-c3ccc4c(c3)OCCO4)[nH]n2)c1`?
A: GI50 [1]: 6.31 µM; TGI [1]: 36.1 µM; GI50 [2]: 8.74 µM; TGI [2]: 38.9 µM; GI50 [3]: 3.15 µM; TGI [3]: 74.6 µM; GI50 [4]: 6.32 µM; TGI [4]: 47 µM; GI50 [5]: 10.4 µM; TGI [5]: 47.7 µM; GI50 [6]: 29.5 µM; TGI [6]: 92.1 µM; GI50 [7]: 1.48 µM; TGI [7]: 37.2 µM; GI50 [8]: 18.9 µM; TGI [8]: 74.9 µM; GI50 [9]: 2 µM; TGI [9]: 44.8 µM; GI50 [10]: 1.11 µM; TGI [10]: 33.5 µM; GI50 [11]: 13.9 µM; TGI [11]: 56.1 µM; GI50 [12]: 4.25 µM; TGI [12]: 32.9 µM; GI50 [13]: 9.27 µM; TGI [13]: 43.9 µM; GI50 [14]: 13.8 µM; TGI [14]: 49.5 µM; GI50 [15]: 1.11 µM; TGI [15]: 33.8 µM; GI50 [16]: 1.42 µM; TGI [16]: 30.1 µM; GI50 [17]: 5.96 µM; TGI [17]: 40.3 µM; GI50 [18]: 4.65 µM; TGI [18]: 53.6 µM; GI50 [19]: 6.99 µM; TGI [19]: 182 µM; GI50 [20]: 7.74 µM; TGI [20]: 42.8 µM; GI50 [21]: 11.5 µM; TGI [21]: 45.6 µM; GI50 [22]: 4.87 µM; TGI [22]: 45.8 µM; GI50 [23]: 0.952 µM; TGI [23]: 31.6 µM; GI50 [24]: 1.09 µM; TGI [24]: 44.9 µM; GI50 [25]: 5.9 µM; TGI [25]: 39.1 µM; GI50 [26]: 7.26 µM; TGI [26]: 51.4 µM; GI50 [27]: 1.04 µM; TGI [27]: 250 µM; GI50 [28]: 1.73 µM; TGI [28]: 18.5 µM; GI50 [29]: 1.95 µM; TGI [29]: 31.3 µM; GI50 [30]: 1.01 µM; TGI [30]: 31.8 µM; GI50 [31]: 21.6 µM; TGI [31]: 59.3 µM; GI50 [32]: 8.66 µM; TGI [32]: 57.4 µM; GI50 [33]: 25.4 µM; TGI [33]: 55.3 µM; GI50 [34]: 1.01 µM; TGI [34]: 38.5 µM; GI50 [35]: 6.38 µM; TGI [35]: 250 µM; GI50 [36]: 2.39 µM; TGI [36]: 41.6 µM; GI50 [37]: 12.4 µM; TGI [37]: 57.1 µM; GI50 [38]: 5.42 µM; TGI [38]: 46.7 µM; GI50 [39]: 3.64 µM; TGI [39]: 53.8 µM; GI50 [40]: 1.55 µM; TGI [40]: 44.5 µM; GI50 [41]: 7.75 µM; TGI [41]: 47.6 µM; GI50 [42]: 9.69 µM; TGI [42]: 41 µM; GI50 [43]: 5.38 µM; TGI [43]: 40.1 µM; GI50 [44]: 6.74 µM; TGI [44]: 53.3 µM; GI50 [45]: 1.61 µM; TGI [45]: 36.3 µM; GI50 [46]: 0.578 µM; TGI [46]: 26.1 µM; GI50 [47]: 4.43 µM; TGI [47]: 39.4 µM; GI50 [48]: 9.71 µM; TGI [48]: 45.1 µM; GI50 [49]: 5.22 µM; TGI [49]: 47.5 µM; GI50 [50]: 1.49 µM; TGI [50]: 35.3 µM; GI50 [51]: 27.2 µM; TGI [51]: 57 µM; GI50 [52]: 2.47 µM; TGI [52]: 36.7 µM; GI50 [53]: 23.1 µM; TGI [53]: 64.9 µM; GI50 [54]: 6.67 µM; TGI [54]: 63.3 µM; GI50 [55]: 7.34 µM; TGI [55]: 46.1 µM; GI50 [56]: 6.83 µM; TGI [56]: 43 µM; GI50 [57]: 0.988 µM; TGI [57]: 98.3 µM; GI50 [58]: 2.24 µM; TGI [58]: 34.8 µM
